Measured values from ChEMBL document CHEMBL1201862, “PubChem BioAssay data set” (2004).
One block for each compound: values may come before it. Activity calls are given as the source filed them.

Experiments:
[1] = biological target: T1, Intestinal-type alkaline phosphatase (Homo sapiens, UniProt P09923); test: inhibition of human intestinal alkaline phosphatase – biochemical, dose response (AID 488876); type: functional
[2] = biological target: T2, Alkaline phosphatase, tissue-nonspecific isozyme (Homo sapiens, UniProt P05186); test: TNAP enzyme inhibition by screening hits, dose response, selectivity assay for mouse IAP inhibitor project, biochemical, human TNAP, uHTS hits (AID 488906); type: functional
T2 sequence (P05186 whole entry): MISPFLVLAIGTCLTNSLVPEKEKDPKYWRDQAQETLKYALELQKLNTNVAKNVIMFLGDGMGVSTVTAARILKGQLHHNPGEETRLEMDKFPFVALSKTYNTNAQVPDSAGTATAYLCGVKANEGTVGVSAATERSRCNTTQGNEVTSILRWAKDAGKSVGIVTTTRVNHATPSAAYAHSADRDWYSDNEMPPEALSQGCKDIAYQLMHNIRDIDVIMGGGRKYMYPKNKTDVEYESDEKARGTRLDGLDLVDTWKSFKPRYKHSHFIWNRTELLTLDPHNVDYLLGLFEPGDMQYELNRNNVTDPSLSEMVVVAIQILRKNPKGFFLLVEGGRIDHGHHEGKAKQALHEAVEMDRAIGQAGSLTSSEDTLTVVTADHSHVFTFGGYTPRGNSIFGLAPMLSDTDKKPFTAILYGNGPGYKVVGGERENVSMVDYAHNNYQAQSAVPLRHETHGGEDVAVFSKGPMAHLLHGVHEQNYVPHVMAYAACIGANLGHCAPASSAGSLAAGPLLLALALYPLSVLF

Large T antigen = Large T antigen (Simian virus 40, UniProt P03070); type: functional, Betapolyomavirus macacae;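 further: Confirmatory-stage PubChem screen for compounds that inhibit SV40 T antigen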
[3] = biological target: T3, Intestinal-type alkaline phosphatase (Mus musculus, UniProt P24822); test: PubChem AID 488785; type: functional
T3 sequence (P24822 whole entry): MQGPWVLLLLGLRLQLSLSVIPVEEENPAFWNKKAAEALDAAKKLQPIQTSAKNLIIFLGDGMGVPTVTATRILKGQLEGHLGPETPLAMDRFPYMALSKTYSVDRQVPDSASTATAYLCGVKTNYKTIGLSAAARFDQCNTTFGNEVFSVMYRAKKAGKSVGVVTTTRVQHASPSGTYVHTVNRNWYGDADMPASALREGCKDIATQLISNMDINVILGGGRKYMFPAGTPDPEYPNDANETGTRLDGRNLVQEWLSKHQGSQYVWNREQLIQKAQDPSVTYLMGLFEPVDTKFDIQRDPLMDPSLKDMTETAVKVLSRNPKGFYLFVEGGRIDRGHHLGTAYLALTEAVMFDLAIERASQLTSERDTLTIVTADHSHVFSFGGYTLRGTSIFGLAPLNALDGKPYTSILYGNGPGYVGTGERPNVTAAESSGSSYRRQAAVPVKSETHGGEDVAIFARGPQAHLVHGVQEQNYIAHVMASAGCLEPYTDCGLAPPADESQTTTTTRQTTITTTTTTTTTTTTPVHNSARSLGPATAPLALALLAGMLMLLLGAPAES

[4] = biological target: T4, Voltage-gated N-type calcium channel alpha-1B subunit/Amyloid beta A4 precursor protein-binding family A member 1 (Homo sapiens, UniProt Q00975+Q02410); type: protein assay
T4 sequence (Q00975 whole entry): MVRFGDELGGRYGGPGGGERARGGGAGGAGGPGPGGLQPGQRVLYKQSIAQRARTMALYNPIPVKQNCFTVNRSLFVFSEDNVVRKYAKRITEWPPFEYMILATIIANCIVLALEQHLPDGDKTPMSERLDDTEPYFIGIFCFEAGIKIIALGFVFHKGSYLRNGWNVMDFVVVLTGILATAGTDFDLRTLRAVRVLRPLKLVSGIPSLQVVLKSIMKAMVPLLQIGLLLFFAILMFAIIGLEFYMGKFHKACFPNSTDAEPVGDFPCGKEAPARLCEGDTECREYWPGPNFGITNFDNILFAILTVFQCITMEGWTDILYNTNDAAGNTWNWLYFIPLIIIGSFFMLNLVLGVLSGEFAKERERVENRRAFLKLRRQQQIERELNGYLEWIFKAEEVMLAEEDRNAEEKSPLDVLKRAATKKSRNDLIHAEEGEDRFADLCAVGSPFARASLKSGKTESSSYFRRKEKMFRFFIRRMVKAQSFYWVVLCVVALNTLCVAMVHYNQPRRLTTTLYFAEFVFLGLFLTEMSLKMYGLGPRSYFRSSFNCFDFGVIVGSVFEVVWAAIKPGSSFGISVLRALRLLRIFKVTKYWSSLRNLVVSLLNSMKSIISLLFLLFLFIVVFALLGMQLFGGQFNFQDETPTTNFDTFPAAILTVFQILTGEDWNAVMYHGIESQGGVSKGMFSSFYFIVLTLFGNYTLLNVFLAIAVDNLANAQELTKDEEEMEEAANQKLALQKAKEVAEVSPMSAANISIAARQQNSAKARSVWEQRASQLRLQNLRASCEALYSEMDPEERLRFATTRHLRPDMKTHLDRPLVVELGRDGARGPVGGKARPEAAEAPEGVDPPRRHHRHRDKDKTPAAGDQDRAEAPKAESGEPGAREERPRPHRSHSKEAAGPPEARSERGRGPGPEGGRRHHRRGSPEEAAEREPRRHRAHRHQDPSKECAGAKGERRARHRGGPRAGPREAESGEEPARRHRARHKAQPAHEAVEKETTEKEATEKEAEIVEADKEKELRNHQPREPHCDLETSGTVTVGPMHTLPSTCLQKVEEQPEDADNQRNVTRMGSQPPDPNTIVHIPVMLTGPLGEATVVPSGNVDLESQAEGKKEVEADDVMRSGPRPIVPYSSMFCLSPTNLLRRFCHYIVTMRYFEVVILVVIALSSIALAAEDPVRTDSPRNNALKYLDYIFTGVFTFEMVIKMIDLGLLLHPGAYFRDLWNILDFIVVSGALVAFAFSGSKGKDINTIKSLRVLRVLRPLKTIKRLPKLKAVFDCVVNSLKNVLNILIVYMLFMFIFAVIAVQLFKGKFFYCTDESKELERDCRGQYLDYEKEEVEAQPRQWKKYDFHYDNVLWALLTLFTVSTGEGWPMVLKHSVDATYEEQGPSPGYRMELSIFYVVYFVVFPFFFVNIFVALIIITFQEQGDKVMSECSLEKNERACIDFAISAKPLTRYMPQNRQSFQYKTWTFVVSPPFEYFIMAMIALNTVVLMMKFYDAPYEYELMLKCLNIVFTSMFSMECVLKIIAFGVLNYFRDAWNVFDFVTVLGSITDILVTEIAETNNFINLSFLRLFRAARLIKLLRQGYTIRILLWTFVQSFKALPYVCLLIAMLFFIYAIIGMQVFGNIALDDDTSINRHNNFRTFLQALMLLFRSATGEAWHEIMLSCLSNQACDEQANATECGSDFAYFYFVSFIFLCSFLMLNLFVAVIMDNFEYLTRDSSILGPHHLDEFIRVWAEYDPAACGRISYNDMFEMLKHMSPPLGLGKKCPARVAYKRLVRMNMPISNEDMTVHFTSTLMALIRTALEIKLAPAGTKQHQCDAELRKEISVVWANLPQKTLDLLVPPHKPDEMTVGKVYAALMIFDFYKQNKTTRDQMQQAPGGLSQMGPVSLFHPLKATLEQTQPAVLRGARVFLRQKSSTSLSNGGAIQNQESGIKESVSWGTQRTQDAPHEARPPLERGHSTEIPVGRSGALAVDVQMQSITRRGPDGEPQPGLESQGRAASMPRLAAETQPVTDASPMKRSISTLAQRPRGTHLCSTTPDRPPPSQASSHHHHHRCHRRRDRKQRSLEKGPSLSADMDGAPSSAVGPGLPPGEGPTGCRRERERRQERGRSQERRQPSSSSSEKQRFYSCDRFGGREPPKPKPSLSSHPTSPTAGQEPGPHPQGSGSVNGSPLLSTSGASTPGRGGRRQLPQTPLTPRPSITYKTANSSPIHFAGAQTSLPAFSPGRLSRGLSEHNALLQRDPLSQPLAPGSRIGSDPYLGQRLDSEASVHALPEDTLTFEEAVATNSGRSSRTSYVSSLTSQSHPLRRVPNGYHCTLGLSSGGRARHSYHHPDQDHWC
T4 sequence (Q02410 whole entry): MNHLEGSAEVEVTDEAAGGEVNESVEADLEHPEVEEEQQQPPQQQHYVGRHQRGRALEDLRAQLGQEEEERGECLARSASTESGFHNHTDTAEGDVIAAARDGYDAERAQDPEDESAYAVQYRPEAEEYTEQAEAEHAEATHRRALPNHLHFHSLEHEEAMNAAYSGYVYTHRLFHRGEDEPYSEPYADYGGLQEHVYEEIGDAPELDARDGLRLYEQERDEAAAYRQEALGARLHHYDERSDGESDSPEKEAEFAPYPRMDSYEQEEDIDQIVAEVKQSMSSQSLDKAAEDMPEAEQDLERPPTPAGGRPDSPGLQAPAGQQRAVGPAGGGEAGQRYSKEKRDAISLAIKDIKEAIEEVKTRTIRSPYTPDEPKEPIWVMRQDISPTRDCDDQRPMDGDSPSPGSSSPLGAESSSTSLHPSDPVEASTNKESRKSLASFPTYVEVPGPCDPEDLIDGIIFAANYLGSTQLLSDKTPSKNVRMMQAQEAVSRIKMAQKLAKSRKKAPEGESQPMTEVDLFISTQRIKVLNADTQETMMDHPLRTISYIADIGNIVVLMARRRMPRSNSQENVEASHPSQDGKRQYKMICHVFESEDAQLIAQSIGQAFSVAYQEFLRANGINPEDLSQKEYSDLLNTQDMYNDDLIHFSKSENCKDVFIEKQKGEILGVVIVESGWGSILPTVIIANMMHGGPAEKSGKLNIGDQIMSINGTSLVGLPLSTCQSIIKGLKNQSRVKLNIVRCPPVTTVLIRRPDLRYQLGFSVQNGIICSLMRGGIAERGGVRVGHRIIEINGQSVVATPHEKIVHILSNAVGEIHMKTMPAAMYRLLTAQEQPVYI

[5] = biological target: T5, Apoptotic protease-activating factor 1 (Homo sapiens, UniProt O14727); test: activation of Apaf-1 mediated apoptosis – fluorescent, uHTS hits, dose response (AID 588554); type: functional
T5 sequence (O14727 whole entry): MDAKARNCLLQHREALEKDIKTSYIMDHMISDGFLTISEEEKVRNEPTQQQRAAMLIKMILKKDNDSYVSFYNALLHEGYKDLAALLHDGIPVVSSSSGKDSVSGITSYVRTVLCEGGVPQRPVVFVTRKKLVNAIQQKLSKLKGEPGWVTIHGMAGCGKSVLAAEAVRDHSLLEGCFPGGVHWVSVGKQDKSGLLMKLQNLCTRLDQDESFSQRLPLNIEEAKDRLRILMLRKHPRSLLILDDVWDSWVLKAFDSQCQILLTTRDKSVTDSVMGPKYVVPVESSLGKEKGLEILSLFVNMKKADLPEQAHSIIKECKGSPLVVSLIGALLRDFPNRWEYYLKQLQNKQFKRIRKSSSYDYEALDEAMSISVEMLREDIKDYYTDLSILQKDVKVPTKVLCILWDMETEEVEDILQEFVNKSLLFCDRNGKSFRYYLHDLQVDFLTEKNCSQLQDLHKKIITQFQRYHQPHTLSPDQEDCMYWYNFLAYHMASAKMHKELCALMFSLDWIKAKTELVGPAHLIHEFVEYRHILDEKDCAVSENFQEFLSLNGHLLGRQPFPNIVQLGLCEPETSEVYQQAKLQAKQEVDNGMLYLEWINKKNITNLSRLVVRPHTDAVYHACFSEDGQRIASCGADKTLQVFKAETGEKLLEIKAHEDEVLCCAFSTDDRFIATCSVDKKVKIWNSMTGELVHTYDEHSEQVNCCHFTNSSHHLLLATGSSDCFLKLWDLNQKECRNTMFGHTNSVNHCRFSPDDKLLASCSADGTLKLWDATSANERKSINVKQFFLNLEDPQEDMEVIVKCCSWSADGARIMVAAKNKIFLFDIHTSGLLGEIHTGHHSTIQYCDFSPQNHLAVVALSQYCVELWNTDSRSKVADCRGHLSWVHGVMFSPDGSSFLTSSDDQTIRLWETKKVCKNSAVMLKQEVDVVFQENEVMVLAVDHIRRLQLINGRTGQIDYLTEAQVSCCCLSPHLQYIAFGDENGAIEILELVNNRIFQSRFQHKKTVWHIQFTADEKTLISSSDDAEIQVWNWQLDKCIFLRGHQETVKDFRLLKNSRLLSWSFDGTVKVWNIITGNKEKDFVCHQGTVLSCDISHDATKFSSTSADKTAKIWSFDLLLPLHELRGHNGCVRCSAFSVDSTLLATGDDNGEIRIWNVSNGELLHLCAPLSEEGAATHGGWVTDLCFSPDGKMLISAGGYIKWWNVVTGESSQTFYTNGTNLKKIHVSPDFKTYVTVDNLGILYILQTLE

[6] = biological target: T6, Small ubiquitin-related modifier 1 (Homo sapiens, UniProt P63165); test: inhibitors of SUMO1 peptide binding, dose response, biochemical, fluorescence polarization, uHTS hits (AID 624382); type: functional; settings: read-out: IC50_Mean
T6 sequence (P63165 whole entry): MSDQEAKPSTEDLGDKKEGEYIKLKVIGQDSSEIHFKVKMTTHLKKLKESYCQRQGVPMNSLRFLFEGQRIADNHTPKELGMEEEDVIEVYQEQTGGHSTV

[7] = biological target: T4, Voltage-gated N-type calcium channel alpha-1B subunit/Amyloid beta A4 precursor protein-binding family A member 1; type: protein assay; remark: listed apart in the source
[8] = biological target: Induced myeloid leukemia cell differentiation protein Mcl-1 (Homo sapiens, UniProt Q07820); type: functional
Sequence of Induced myeloid leukemia cell differentiation protein Mcl-1 (Q07820 whole entry, the tested form may be a part): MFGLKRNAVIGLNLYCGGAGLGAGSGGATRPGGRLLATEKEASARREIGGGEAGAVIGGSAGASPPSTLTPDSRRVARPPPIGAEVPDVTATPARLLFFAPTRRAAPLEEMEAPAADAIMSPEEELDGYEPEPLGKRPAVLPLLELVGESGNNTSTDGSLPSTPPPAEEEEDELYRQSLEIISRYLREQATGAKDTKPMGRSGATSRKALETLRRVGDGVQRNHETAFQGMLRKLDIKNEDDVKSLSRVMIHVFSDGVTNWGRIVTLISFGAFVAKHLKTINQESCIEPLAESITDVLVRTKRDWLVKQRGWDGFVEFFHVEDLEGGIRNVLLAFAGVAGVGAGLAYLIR

[9] = biological target: T7, Carboxy-terminal domain RNA polymerase II polypeptide A small phosphatase 1 (Homo sapiens, UniProt Q9GZU7); test: inhibitors of CTDSP1, concentration-response testing, biochemical assay, absorbance-based, actives from ultra-high-throughput screening (AID 540297); type: functional
T7 sequence (Q9GZU7 whole entry): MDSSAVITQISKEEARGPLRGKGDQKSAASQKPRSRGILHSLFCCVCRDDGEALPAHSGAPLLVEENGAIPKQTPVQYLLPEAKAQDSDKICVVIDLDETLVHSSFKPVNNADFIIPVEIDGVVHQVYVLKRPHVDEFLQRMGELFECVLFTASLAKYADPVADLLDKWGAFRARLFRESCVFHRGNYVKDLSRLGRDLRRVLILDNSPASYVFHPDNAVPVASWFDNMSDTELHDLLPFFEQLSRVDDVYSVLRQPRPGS

[10] = biological target: DNA (cytosine-5)-methyltransferase 1 (Homo sapiens, UniProt P26358); test: DNMT1 methyltransferase inhibitors, confirmation, biochemical, fluorescent molecular beacon (AID 602386); type: functional
[11] = biological target: T6, Small ubiquitin-related modifier 1; test: inhibitors of SUMO1 partner interactions, dose response, biochemical, FRET (AID 624383); type: functional; settings: read-out: IC50_Mean
[12] = biological target: T3, Intestinal-type alkaline phosphatase; test: PubChem AID 488874; type: functional
[13] = biological target: T1, Intestinal-type alkaline phosphatase; test: human IAP activators, dose response, biochemical, luminescent, uHTS hits, set 2 (AID 488817); type: functional;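 further: potency of activators that raise enzyme activity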
[14] = biological target: T1, Intestinal-type alkaline phosphatase; test: human intestinal alkaline phosphatase activators, dose response, biochemical, luminescence, uHTS hits (AID 463120); type: functional
[15] = biological target: T2, Alkaline phosphatase, tissue-nonspecific isozyme; test: TNAP enzyme activators, dose response, selectivity assay for human IAP activator project, biochemical, TNAP isozyme, human IAP uHTS hits (AID 488886); type: functional;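 further: potency of compounds raising TNAP activity as a selectivity check on IAP activators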

T1 sequence (P09923 whole entry): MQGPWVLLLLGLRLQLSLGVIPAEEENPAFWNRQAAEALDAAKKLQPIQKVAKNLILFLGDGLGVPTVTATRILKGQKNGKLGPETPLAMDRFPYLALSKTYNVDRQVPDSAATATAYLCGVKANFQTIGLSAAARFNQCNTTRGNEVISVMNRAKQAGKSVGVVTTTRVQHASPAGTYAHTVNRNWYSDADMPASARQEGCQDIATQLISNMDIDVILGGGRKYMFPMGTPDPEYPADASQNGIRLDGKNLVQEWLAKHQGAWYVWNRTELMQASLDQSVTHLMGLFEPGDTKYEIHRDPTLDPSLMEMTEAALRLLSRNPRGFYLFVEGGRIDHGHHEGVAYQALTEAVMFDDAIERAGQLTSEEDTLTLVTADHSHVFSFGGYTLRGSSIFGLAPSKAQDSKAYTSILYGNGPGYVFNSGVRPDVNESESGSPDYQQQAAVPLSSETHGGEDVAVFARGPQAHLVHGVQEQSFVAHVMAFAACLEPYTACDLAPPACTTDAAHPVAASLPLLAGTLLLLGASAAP

Structure (SMILES): Oc1cc(O)c2c(c1)OC(c1ccc(O)c(O)c1)C(O)C2 (stereo unspecified)
IC50 [1]: > 100 µM (inactive) | IC50 [2]: > 100 µM (inactive) | IC50 (Large T antigen): 8.64 µM (active) | IC50 [3]: 24.1 µM (active)

Structure (SMILES): C=C(C)C(=O)Nc1cccc(C2=NOC3(C2)C[C@@H](C(N)=O)N(C(=O)/C(C)=C/C)C3)c1 (stereo partly specified)
IC50 [4]: > 50 µM (inactive) | EC50 [5]: 1.69 µM (active) | IC50 [6]: > 66.6 µM (inactive) | IC50 [7]: 17.7 µM (active) | IC50 [8]: 23.6 µM (not active) | IC50 [9]: 0.54 µM (active) | IC50 [10]: 1.94 µM (active) | IC50 [11]: 0.869 µM (active)

IC50 [12]: 50.4 µM (active) | EC50 [13]: 19.2 µM (active) | EC50 [14]: 7.93 µM (active) | EC50 [15]: 12.5 µM (active)
Structure (SMILES): Cc1nc2c3ccccc3nc(NNC(=O)CCC(=O)NCCC(C)C)n2n1
